Source: patent US11072628B2, “Nucleoside analogues for the treatment of parasitic infections” (UNIVERSITEIT GENT, priority 2017, dated 2021)
Where two headings read alike, the source gives them in different places.

Columns and labels:
[1] = Cytotoxicity against MRC-5 fibroblasts; conditions: human, MRC-5 fibroblasts, cytotoxicity
Protocol: Cytotoxicity was assayed against MRC-5 fibroblasts. Results are depicted in Tables 4 and 5.

[2] = test system: T. b. rhodesiense STIB-900; test: In vitro drug susceptibility, T. b. rhodesiense STIB-900 (resazurin); type: cell-based, Trypanosoma brucei rhodesiense; conditions: Trypanosoma brucei, RHODESIENSE
Protocol: (§1) All trypanosome strains were cultured in the standard HMI-9 medium supplemented with 10% fetal bovine serum (FBS) at 37° C. in a 5% CO2 atmosphere.

[3] = test system: T. cruzi Tulahuen CL2 β galactosidase strain; test: T. cruzi Tulahuen CL2 β galactosidase strain on MRC-5SV2 cells (CPRG); type: cell-based, Trypanosoma cruzi; conditions: Trypanosoma cruzi, TULAHUEN, MRC-5 SV2
Protocol: All cultures and assays were conducted at 37° C./5% CO2. […] The results were expressed as % reduction in parasite burdens compared to control wells from which an EC50 was calculated.

T. brucei Squib 427 = test: In vitro drug susceptibility, T. brucei Squib 427 (resazurin); type: cell-based, Trypanosoma brucei brucei; conditions: Trypanosoma brucei
Protocol: as §1

[4] = test system: T. vaginalis trophozoites (metronidazole susceptible G3 strain); test: Trichomonas vaginalis in vitro assay; type: cell-based; conditions: Trichomonas vaginalis, average of 2-5 independent replicates
Protocol: T. vaginalis trophozoites (metronidazole susceptible G3 strain) were grown in vitro in modified Diamond's media (MDM) with 10% heat inactivated horse serum (HIHS) acquired from Gibco Life Technologies. After medium preparation, the pH was adjusted to 6.3-6.4 employing 1.0 M aq. HCl. Parasites cultures were passaged every day by taking 1 mL of cell culture into a 25 mL bottle of fresh media to ensure the cells were kept at the appropriate concentration of ˜2×10^6 cells/mL. The culture flasks were filled completely and tightly capped to provide the cells with an anaerobic environment. The parasites were maintained in incubation at 37° C. When culturing in multiwell plates, the plates were sealed with Nescofilm® and inserted in BD GasPak EZ pouches (BD Diagnostics, UK) in order to create anaerobic conditions. Assays were performed with 5×10^4 trophozoites/well (100 μL) to which compound dilutions were added (100 μL). Outside wells of columns and rows were filled with 200 μL of sterile water. Plates were sealed with Nescofilm® and incubated under anaerobic conditions as described above. After 24 h, 30 μL of assay dye solution (resorufin) was added, and incubated for 1-2 h before being read using Fluostar Optima (BMG Labtech, UK) at an excitation wavelength of 544 nm and an emission wavelength of 620 nm.

[5] = Table 2, average of 2-3 independent replicates
[6] = read-out: T. brucei brucei EC50, Table 1, average of 2-4 independent determinations
[7] = Table 5, average of 2-4 independent replicates
[8] = read-out: T.b. brucei EC50, Table 4, average of 2-6 independent determinations

SMILES: CCCCC#Cc1cn([C@@H]2O[C@H](CO)C[C@H]2O)c2ncnc(N)c12 [FH9611, 4-amino-5-hex-1-yn-N7-(3′-deoxy-β-D-ribfuranosyl)-pyrrolo[2,3-d]pyrimidine]
- melting point: 161 to 163 °C
- EC50 ([1]; MRC-5 EC50, Table 1): > 64 µM
- EC50 ([1]; MRC-5 EC50, Table 2): > 64 µM
- EC50 ([2]; read-out: T. brucei rhod. EC50): 60 nM
- EC50 [3, 5]: 9700 nM
- EC50 (T. brucei Squib 427; [6]): 320 nM

SMILES: Nc1ncnc2c1c(C(F)(F)F)cn2[C@@H]1O[C@H](CO)C[C@H]1O [FH9526, 4-amino-5-trifluoromethyl-N7-(3′-deoxy-β-D-ribofuranosyl)-pyrrolo[2,3-d]pyrimidine]
- melting point: 167 °C
- EC50 ([1]; MRC-5 EC50, Table 1): 0.66 µM
- EC50 ([1]; MRC-5 EC50, Table 2): 0.66 µM
- EC50 ([2]; read-out: T. brucei rhod. EC50): 1880 nM
- EC50 [3, 5]: 2330 nM
- EC50 (T. brucei Squib 427; [6]): 940 nM

SMILES: Nc1ncnc2c1c(CCc1ccccc1)cn2[C@@H]1O[C@H](CO)C[C@H]1O [FH10661, 4-amino-5-(phenylethyl)-N7-(3′-deoxy-β-D-ribfuranosyl)-pyrrolo[2,3-d]pyrimidine]
- melting point: 76 °C
- EC50 ([1]; MRC-5 EC50, Table 1): > 64 µM
- EC50 ([1]; MRC-5 EC50, Table 2): > 64 µM
- EC50 ([2]; read-out: T. brucei rhod. EC50): 670 nM
- EC50 [3, 5]: > 64000 nM
- EC50 (T. brucei Squib 427; [6]): 8260 nM

SMILES: OC[C@@H]1C[C@@H](O)[C@H](n2cc(Br)c3cncnc32)O1 [FH9539, 5-bromo-N7-(3′-deoxy-β-D-ribofuranosyl)-pyrrolo[2,3-d]pyrimidine]
- melting point: 186 °C
- EC50 ([1]; MRC-5 EC50, Table 1): 21 µM
- EC50 ([1]; MRC-5 EC50, Table 2): 21 µM
- EC50 ([2]; read-out: T. brucei rhod. EC50): 910 nM
- EC50 [3, 5]: 36800 nM
- EC50 (T. brucei Squib 427; [6]): 510 nM

SMILES: Nc1ncnc2c1c(-c1ccc(Cl)c(Cl)c1)cn2[C@@H]1O[C@H](CO)C[C@H]1O [FH8513]
- EC50 ([1]; MRC-5 EC50, Table 1): 13.6 µM
- EC50 ([1]; MRC-5 EC50, Table 2): 13.6 µM
- EC50 ([4]; Table 3): 330 nM
- EC50 ([2]; read-out: T. brucei rhod. EC50): 1500 nM
- EC50 [3, 5]: 60 nM
- EC50 (T. brucei Squib 427; [6]): 1800 nM

SMILES: CCc1ccc(-c2cn([C@@H]3O[C@H](CO)C[C@H]3O)c3ncnc(N)c23)cc1 [FH10647]
- melting point: 114 °C
- EC50 ([1]; MRC-5 EC50, Table 1): 18.4 µM
- EC50 ([1]; MRC-5 EC50, Table 2): 18.4 µM
- EC50 ([2]; read-out: T. brucei rhod. EC50): 1500 nM
- EC50 [3, 5]: 1040 nM
- EC50 (T. brucei Squib 427; [6]): 7580 nM

SMILES: Nc1ncnc2c1c(-c1ccc(Cl)cn1)cn2[C@@H]1O[C@H](CO)[C@@H](O)[C@H]1O [MS1039, 4-amino-5-(5-chloro-pyrid-2-yl)-N7-(β-D-ribofuranosyl)-pyrrolo[2,3-d]pyrimidine]
- EC50 ([1]; MRC-5 EC50, Table 4): > 64 µM
- EC50 ([1]; MRC-5 EC50, Table 5): > 64 µM
- EC50 ([4]; Table 6): 860 nM
- EC50 ([2]; read-out: T.b. rhod. EC50): 4600 nM
- EC50 [3, 7]: 2390 nM
- EC50 (T. brucei Squib 427; [8]): 8970 nM

SMILES: CCc1cn([C@@H]2O[C@H](CO)C[C@H]2O)c2ncnc(N)c12 [FH9613, 4-amino-5-ethyl-N7-(3′-deoxy-β-D-ribofuranosyl)-pyrrolo[2,3-d]pyrimidine]
- melting point: 200 °C
- EC50 ([1]; MRC-5 EC50, Table 1): > 64 µM
- EC50 ([1]; MRC-5 EC50, Table 2): > 64 µM
- EC50 ([2]; read-out: T. brucei rhod. EC50): 650 nM
- EC50 [3, 5]: 19700 nM
- EC50 (T. brucei Squib 427; [6]): 1780 nM

SMILES: Nc1ncnc2c1c(-c1cccc(Cl)c1)cn2[C@@H]1O[C@H](CO)C[C@H]1O [FH10641, 4-amino-5-(3-chlorophenyl)-N7-(3′-deoxy-β-D-ribofuranosyl)-pyrrolo[2,3-d]pyrimidine]
- melting point: 130 °C
- EC50 ([1]; MRC-5 EC50, Table 1): 36.1 µM
- EC50 ([1]; MRC-5 EC50, Table 2): 36.1 µM
- EC50 ([2]; read-out: T. brucei rhod. EC50): 550 nM
- EC50 [3, 5]: 970 nM
- EC50 (T. brucei Squib 427; [6]): 7130 nM

SMILES: Nc1ncnc2c1c(-c1cc(Cl)cc(Cl)c1)cn2[C@@H]1O[C@H](CO)[C@@H](O)[C@H]1O [FH8460, 4-amino-5-(3,5-dichlorophenyl)-N7-(β-D-ribofuranosyl)-pyrrolo[2,3-d]pyrimidine]
- melting point: 219 °C
- EC50 ([1]; MRC-5 EC50, Table 4): > 64 µM
- EC50 ([1]; MRC-5 EC50, Table 5): > 64 µM
- EC50 ([2]; read-out: T.b. rhod. EC50): 3660 nM
- EC50 [3, 7]: 1720 nM
- EC50 (T. brucei Squib 427; read-out: EC50 against T. brucei): < 10000 nM
- EC50 (T. brucei Squib 427; [8]): 8170 nM

SMILES: C#Cc1cn([C@@H]2O[C@H](CO)C[C@H]2O)c2ncnc(N)c12 [FH8505, 4-amino-5-ethynyl-N7-(3′-deoxy-β-D-ribofuranosyl)-pyrrolo[2,3-d]pyrimidine]
- melting point: 192 °C
- EC50 ([2]; read-out: T. brucei rhod. EC50): 0.5 nM
- EC50 [3, 5]: 1660 nM
- EC50 (T. brucei Squib 427; [6]): 5 nM
